Reference: publication PMC10816808, “Enhancement of the Antitumor and Antimetastatic Effect of Topotecan and Normalization of Blood Counts in Mice with Lewis Carcinoma by Tdp1 Inhibitors—New Usnic Acid Derivatives” (International Journal of Molecular Sciences, 2024)

What was measured:
cells = conditions: cited from earlier work; for CC50: read-out: CC50 values (toxicity to cells)
[1] = tested on: mouse Lewis lung adenocarcinoma; parameters: method as in PMID 34370156; conditions: cited from earlier work
[2] = MTT cytotoxicity test, MRC-5; assay type: cell-based; conditions: human, MRC-5 cells (lung fibroblasts, nontumor), read-out: semitoxic concentration (CC50), MRC-5
Source text: (§1) Compounds 6 and 8 with a bromophenol residue in the enamine fragment have a weak or moderate effect on cell survival (Table 1 and Supplementary Figure S1).
(§2) Cytotoxicity of the compounds against human tumor cell lines: HeLa (cervical cancer), HCT-116 (colorectal cancer), A-549 (lung cancer), MCF-7 (breast cancer), T98G (glioblastoma), HepG2 (hepatocarcinoma), and nontumor cell lines: MRC-5 (lung fibroblasts) and HEK293A (human embryonic kidney) was examined using the MTT test. HCT-116 and MRC-5 cell lines were provided by the Cell Culture Bank of the State Research Center for Virology and Biotechnology Vector, Novosibirsk, Russia. A-549, MCF-7, and T98G cell lines were obtained from the Russian Cell Culture Collection (RCCC) Institute of Cytology RAS (St. Petersburg, Russia). HEK293A cells were purchased (ThermoFisher Scientific, Waltham, MA, USA).
(§3) The cell culture medium DMEM medium (Invitrogen, Carlsbad, CA, USA) contained 10% fetal bovine serum (FBS) (Invitrogen), penicillin (100 units/mL), and streptomycin (100 µg/mL). Cells were seeded into 96-well plates at 5000 cells per well and grown at 37 °C and 5% CO2 in a humid atmosphere. At 30–50% confluence, the tested compounds were added to the medium to a final DMSO content of 1%. Control wells contained 1% DMSO. To determine the cytotoxicity of Tdp1 inhibitors, the cells were treated with compounds with concentrations ranging from 1 to 100 µM for 72 h at 37 °C for 72 h. All measurements were repeated a minimum of twice.

Tdp1 = molecular target: T1, Tdp1 (Homo sapiens, UniProt Q9NUW8); test: Tdp1 inhibition, fluorescent oligonucleotide biosensor; assay type: biochemical; conditions: purified Tdp1 1.5 nM, 50 nM biosensor; read-out: Concentration of half-maximal inhibition of Tdp1 (IC50)
T1 construct: Purified Tdp1 (1.5 nM) triggered the reaction
T1 sequence (Q9NUW8 whole entry): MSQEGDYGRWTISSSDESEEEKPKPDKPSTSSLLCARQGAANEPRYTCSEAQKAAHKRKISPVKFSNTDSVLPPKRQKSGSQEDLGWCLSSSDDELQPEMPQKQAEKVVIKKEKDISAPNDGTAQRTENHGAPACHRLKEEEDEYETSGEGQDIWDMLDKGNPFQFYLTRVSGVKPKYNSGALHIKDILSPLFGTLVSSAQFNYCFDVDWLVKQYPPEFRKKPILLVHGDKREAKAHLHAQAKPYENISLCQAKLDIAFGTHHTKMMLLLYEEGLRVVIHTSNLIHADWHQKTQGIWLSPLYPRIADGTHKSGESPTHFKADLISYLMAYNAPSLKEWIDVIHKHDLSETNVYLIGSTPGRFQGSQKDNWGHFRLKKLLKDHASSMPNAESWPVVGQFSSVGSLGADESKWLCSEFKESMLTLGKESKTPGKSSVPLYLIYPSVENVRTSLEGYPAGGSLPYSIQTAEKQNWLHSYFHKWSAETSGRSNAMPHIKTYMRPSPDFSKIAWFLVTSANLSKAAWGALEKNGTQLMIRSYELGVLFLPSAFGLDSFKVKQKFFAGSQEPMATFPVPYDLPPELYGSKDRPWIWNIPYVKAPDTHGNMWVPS
Source text: The inhibitory properties of the compound on the purified Tdp1 was studied using a technique developed previously by our team. A 16-mer single-stranded oligonucleotide carrying a fluorophore at the 5′-end and a quencher at the 3′-end was used as a biosensor. When within the Förster radius, the quencher suppressed the fluorescence of the fluorophore. The quencher was removed by Tdp1, resulting in fluorescence emission. Usnic acid derivatives with a bromophenol residue in the enamine fragment (compounds 6 and 8) inhibit the enzyme with half-maximal inhibition concentrations (IC50) an order of magnitude worse than derivatives with a di-tert-butyl fragment (compounds 5 and 7).
An oligonucleotide 5′-[FAM] AAC GTC AGGGTC TTC C [BHQ1]-3′ synthesized in the laboratory Laboratory of Nucleic Acids Chemistry at the Institute of Chemical Biology and Fundamental Medicine (Novosibirsk, Russia) was used as a biosensor. Removal of the quencher (BHQ1) due to enzyme activity leads to increased fluorescence of FAM. The reaction was carried out at different concentrations of inhibitors (1.5% of DMSO, Sigma, St. Louis, MO, USA, in the control samples). The reaction mixtures contained Tdp1 buffer (50 mM Tris-HCl pH 8.0, 50 mM NaCl, and 7 mM β-mercaptoethanol), 50 nM biosensor, and an inhibitor being tested. Purified Tdp1 (1.5 nM) triggered the reaction.
The fluorescence was measured using POLARstar OPTIMA fluorimeter (BMG LABTECH, GmbH, Ortenberg, Germany). The values of IC50 were determined in minimum three independent experiments and were calculated using embedded software MARS Data Analysis 2.0 (BMG LABTECH, GmbH, Ortenberg, Germany).

[3] = MTT cytotoxicity test, T98G; assay type: cell-based; conditions: human, T98G cells (glioblastoma), read-out: semitoxic concentration (CC50), T98G
Source text: as §1, §2, §3

[4] = MTT cytotoxicity test, HCT-116; assay type: cell-based; conditions: human, HCT-116 cells (colorectal cancer), read-out: semitoxic concentration (CC50), HCT-116
Source text: as §1, §2, §3

[5] = MTT cytotoxicity test, A-549; assay type: cell-based; conditions: human, A-549 cells (lung cancer), read-out: semitoxic concentration (CC50), A-549
Source text: as §1, §2, §3

[6] = MTT cytotoxicity test, HEK293A; assay type: cell-based; conditions: human, HEK293A cells (embryonic kidney, nontumor), read-out: semitoxic concentration (CC50), HEK293A
Source text: as §1, §2, §3

[7] = MTT cytotoxicity test, MCF-7; assay type: cell-based; conditions: human, MCF-7 cells (breast cancer), read-out: semitoxic concentration (CC50), MCF-7
Source text: as §1, §2, §3

[8] = tested on: various types of cultured cells; test: MTT test, panel of cultured cell lines; assay type: cell-based; conditions: at concentrations up to 100 μM; wide panel of tumor and non-cancerous cell lines
Source text: as §1, §2
as §3, with “To determine the cytotoxicity of Tdp1 inhibitors, the cells were treated with compounds with concentrations ranging from 1 to 100 µM for 72 h at 37 °C for 72 h. All measurements were repeated a minimum of twice.” left out

[9] = MTT cytotoxicity test, HeLa; assay type: cell-based; conditions: human, HeLa cells (cervical cancer), read-out: semitoxic concentration (CC50), HeLa
Source text: as §1, §2, §3

SMILES | toxicity to the different cell types (in words) (cells) | enhancement of the antitumor effect of topotecan [1] | CC50 (cells) | CC50 at 72 h [2] | IC50 (Tdp1) | CC50 at 72 h [3] | CC50 at 72 h [4] | CC50 at 72 h [5] | CC50 at 72 h [6] | CC50 at 72 h [7] | living cells (metabolic activity, MTT) [8] | CC50 at 72 h [9]
CC(=O)c1c(O)c(C)c(O)c2c1OC1=CC(=O)/C(=C(\C)NCCCc3cc(C(C)(C)C)c(O)c(C(C)(C)C)c3)C(=O)[C@@]12C [Compound 1] | nontoxic | enhanced at least twofold |  |  |  |  |  |  |  |  |  | 
CC(=O)c1c(O)c(C)c(O)c2c1OC1=CC(=O)/C(=C(\C)Nc3ccc(Br)cc3)C(=O)[C@@]12C [Compound 2] | nontoxic |  |  |  |  |  |  |  |  |  |  | 
CC(=O)C1=C(O)C=C2Oc3c(-c4csc(N/N=C/c5ccc(Br)s5)n4)c(O)c(C)c(O)c3[C@@]2(C)C1=O [Compound 3] |  |  | 9 to 16 µM |  |  |  |  |  |  |  |  | 
CC(=O)C1=C(O)C=C2Oc3c(-c4csc(N/N=C/c5ccc(Br)cc5)n4)c(O)c(C)c(O)c3[C@@]2(C)C1=O [Compound 4, reference compound] |  |  | 1.5 µM | 7 ± 0.7 µM | 30 ± 10 nM | 4 ± 1 µM | 7 ± 0.6 µM | 3.9 ± 0.2 µM | 12 ± 5 µM | 9.3 ± 2.2 µM |  | 
C/C(NCCCc1cc(C(C)(C)C)c(O)c(C(C)(C)C)c1)=C1\C(=O)C=C2Oc3c(-c4csc(N/N=C/c5ccc(Br)s5)n4)c(O)c(C)c(O)c3[C@@]2(C)C1=O [Compound 5, (4E)-10-{2-[(E)-2-[(5-bromothiophenyl)methylidene]hydrazin-1-yl]-1,3-thiazole-4-yl}-4-(1-{[3-(3,5-di-tret-butyl-4-hydroxyhenyl)propyl]amino}ethylidene)-11,13-dihydroxy-2,12-dimethyl-8-oxatricyclo [7.4.0.02,7]trideca-1(13),6,9,11-tetraen-3,5-dione] |  |  |  | > 100 µM | 140 ± 20 nM | > 100 µM | > 100 µM | > 100 µM | > 100 µM | > 100 µM | more than 50% | > 100 µM
C/C(Nc1ccc(Br)cc1)=C1\C(=O)C=C2Oc3c(-c4csc(N/N=C/c5ccc(Br)cc5)n4)c(O)c(C)c(O)c3[C@@]2(C)C1=O [Compound 8, (4E)-4-{1-[(4-bromophenyl)amino]ethilidene}-10-{2-[(E)-2-[(4-bromophenyl)methylidene]hydrazin-1-yl]-1,3-thiazol-4-yl}-11,13-dihydroxy-2,12-dimethyl-8-oxatricyclo [7.4.0.02,7]trideca-1(13),6,9,11-tetraen-3,5-dione] |  |  |  |  | 5000 ± 1000 nM | 44 ± 13 µM |  | 30 ± 10 µM | 88 ± 26 µM | 30 ± 20 µM |  | > 100 µM
